Measured values published in patent US8877795B2, “Identification of stabilizers of multimeric proteins” (The Board of Trustees of the Leland Stanford Junior …, priority 2010, dated 2014).

How the values were obtained:
[1] = biological target: TTR (Homo sapiens (Human), UniProt P02766); assay: Determination of IC50 using the FP assay (HTS format, probe 5); assay type: binding; settings: read-out: IC50 (compound concentration that resulted in 50% decrease in the FP signal); dose-response FP assay in duplicate
[2] = biological target: WT TTR (Homo sapiens (Human), UniProt P02766); assay: Acid-mediated fibril formation assay for TTR amyloidogenesis (turbidity); settings: TTR 3.6 μM; for % fibril formation / TTR aggregation inhibition (in words): ligand 7.2 μM, 72 h; for % fibril formation: pH 4.4, 37° C., no ligand = 100%; for inhibition of fibril formation: substoichiometric: ligand 3.0 μM, monitored over 5 days
Method: The efficacy of each compound to inhibit TTR amyloidogenesis was determined by monitoring the turbidity of TTR aggregation at acidic pH, as described previously. […] The final 1 ml sample mixture was vortexed, then incubated at 37° C. for 72 hours, after which the sample was vortexed and the optical density was measured at 400 nm on a Beckman DU® 640 spectrophotometer. […] The optical density was also corrected for the absorption of all test compounds in the absence of TTR. […] The optical density (400 nm) was measured as described above at 0, 24, 48, 72, 96, and 120 hours. All assays were performed in triplicate and the average values obtained are presented.
TTR was preincubated with small molecules for 30 min at room temperature before amyloidosis was initiated (lowering pH to 4.4, incubation at 37° C.). […] The amyloidogenesis inhibition efficacy of each compound was determined by monitoring the turbidity of TTR (400 nm). The extent of TTR amyloidogenesis was quantitated at a fixed time point (72 h). All amyloid fibril formation data was normalized to TTR amyloidogenesis in the absence of inhibitor, assigned to be 100% fibril formation. […] The aggregation inhibition was monitored over 5 days using the acid-mediated fibril formation assay (compared to 3 days for the fixed time point described above) (FIG. 5B).

[3] = tested on: WT TTR cytotoxicity in human IMR-32 neuroblastoma cells; assay: Inhibition of WT TTR cytotoxicity in IMR-32 cells; settings: TTR and ligand 8 μM, 24 h
Method: (§1) The human cardiac cell line AC16 was maintained in DMEM:F12 (1:1) supplemented with 10% FBS, 1 mM Hepes buffer, 2 mM L-glutamine, 100 units/mL penicillin and 100 μg/mL streptomycin. Two to 4-day-old cultures (˜70% confluent) were used for the experiments.
(§2) Recombinant WT TTR purified in the cold in HBSS (Mediatech, Manassas, Va.) was used as a cytotoxic insult to IMR-32 cells and the amyloidogenic V122I TTR was used as cytotoxic insult to cardiac AC16 cells. Candidate compounds (16 mM in DMSO) were diluted 1:1000 with WT TTR or V122I TTR (16 mM in HBSS, filter sterilized) or with HBSS only. The mixtures were vortexed and incubated for 24 h at 4° C. WT TTR or V122I TTR (16 mM in HBSS) containing the same amount of DMSO than TTR/candidate compound mixtures was prepared in parallel and incubated under the same conditions.
(§3) The neuroblastoma IMR-32 and the cardiac AC16 cells were seeded in black wall, clear bottom, tissue culture treated 96-well plates (Costar) at a density of 6,000 cells/well and 250 cells/well, respectively in Opti-mem supplemented with 5% FBS, 1 mM Hepes buffer, 2 mM L-glutamine, 100 units/mL penicillin and 100 μg/mL streptomycin, 0.05 mg/mL CaCl2 and incubated overnight at 37° C. The medium was then removed and replaced immediately by the TTR/compound or HBSS previously diluted 1:1 in Opti-mem supplemented with 0.8 mg/mL BSA, 2 mM Hepes buffer, 4 mM L-glutamine, 200 units/mL penicillin, 200 μg/mL streptomycin and 0.1 mg/mL CaCl2. The cells were incubated 24 h at 37° C. after which cell viability was measured.
(§4) Cell viability of the cells treated with TTR or TTR/candidate compound was evaluated by a resazurin reduction assay. Briefly, 10 μL/well of resazurin (500 mM, PBS) was added to each well and incubated for 2-3 h at 37° C. Viable cells reduce resazurin to the highly fluorescent resorufin dye, which is quantitated in a multiwell plate reader (Ex/Em 530/590 nm, Tecan Safire2, Austria). Cell viability was calculated as percentage of fluorescence relative to cells treated with vehicle only (100% viability) after subtraction of blank fluorescence (wells without cells). All experimental conditions were performed at least in six replicates. Averages and SEM corresponding to 2 independently performed experiments were calculated.
(§5) The compounds under study were pre-incubated with WT TTR or V122I TTR for 24 h at 4° C. at equimolar concentrations (8 μM) and added to IMR-32 cells or AC16 cells, respectively. Cell viability was measured after 24 h by a resazurin reduction assay. […] The percentage of viable cells was calculated relative to cells treated with vehicle only (cell culture media and DMSO)—which were assigned to be 100% viable.

[4] = tested on: V122I TTR cytotoxicity in human AC16 cardiac cells; assay: Inhibition of V122I TTR cytotoxicity in AC16 cells; settings: TTR and ligand 8 μM, 24 h
Method: as §1, §2, §3, §4, §5

[5] = biological target: human wild type TTR (Homo sapiens (Human), UniProt P02766); assay: Isothermal titration calorimetry (ITC) of ligands against TTR; assay type: binding; settings: for TΔS binding entropy / ΔG binding free energy / ΔH binding enthalpy: ITC; for Kd: TTR 2 μM titrated with ligand 25 μM, 25° C., one-to-one binding model, read-out: Kd (ITC)
Method: Calorimetric titrations were carried out on a VP-ITC calorimeter (MicroCal, Northhampton, Mass.). […] Prior to each titration, all samples were degassed for 10 minutes. The initial injection of 3.0 μL was followed by 30 injections of 8.0 μL each (25° C.) to the point that TTR was fully saturated with ligand. Integration of the thermogram after subtraction of blanks yielded a binding isotherm that was analyzed with MicroCal Origin 5.0 software.

Compound | IC50 [1] [nM] | % fibril formation [2] [%] | also measured
COc1ccc(/C=N/n2c(S)nnc2C(F)(F)F)cc1O | 277 | 0.43 ± 0.61 | –
COc1c(Br)cc(/C=C2\SC(=O)NC2=O)cc1Br | 301 | 0.37 ± 0.53 | –
CCOc1ccccc1-c1nc(-c2ccncc2)no1 | – | 0.00 ± 0.00 | –
Cc1[nH]c2ccccc2c1C(C#N)(C#N)C1C(=O)c2ccccc2C1=O | 586 | 5.77 ± 3.91 | –
O=c1cc(-c2ccc(O)cc2)oc2cc(O)cc(O)c12 | 653 | 10.07 ± 0.53 | –
O=C1NC(=O)/C(=C/c2cccc(C(F)(F)F)c2)S1 | 815 | 1.92 ± 1.08 | –
O=C(O)c1cc2nc(-c3ccc(Cl)c(Cl)c3)cc(C(F)(F)F)n2n1 | 2580 | 1.81 ± 2.56 | –
Cc1ccccc1/C=C1\SC(=O)NC1=O | 3350 | 10.44 ± 4.88 | –
O=C1NC(=O)/C(=C/c2ccc(-c3ccc(Cl)c(C(=O)O)c3)o2)S1 | 3930 | 13.90 ± 5.52 | –
O=c1c(Oc2ccccc2Cl)c(C(F)(F)F)oc2cc(O)ccc12 | 4220 | 24.36 ± 1.11 | –
CSC1=NSC2=NC(=O)/C(=C\c3cccc4ccccc34)C(=N)N12 | 4880 | 28.77 ± 6.36 | –
CC1=C(CCC(=O)O)C(=O)N2c3ccccc3NC2C1C#N (centres unmarked) | 8690 | 46.24 ± 1.33 | –
COc1cc(/C=C2\C(=N)N3N=C(S(C)(=O)=O)SC3=NC2=O)ccc1OCc1ccccc1C | 9760 | 48.25 ± 0.68 | –
CC(=O)Nc1ccc(Nc2nc3ccccc3nc2NS(=O)(=O)c2ccc(C)cc2)cc1 | 10600 | 49.43 ± 4.26 | –
O=[N+]([O-])c1cc(O)c(O)c([N+](=O)[O-])c1 [3,5-dinitrocatechol, reference compound] | – | – | prevention of WT TTR-induced cytotoxicity (in words) [3]: poor inhibitor; prevention of V122I TTR-induced cytotoxicity (in words) [4]: poor inhibitor; TTR aggregation inhibition (in words) [2]: potent aggregation inhibitors
NCCOCCOCCOc1c(Cl)cc(Nc2ccccc2C(=O)O)cc1Cl [Compound 4, 2-(4-(2-(2-(2-aminoethoxy)ethoxy)ethoxy)-3,5-dichlorophenylamino)benzoic acid] | – | – | TΔS binding entropy [5]: 0.08 ± 0.01 kcal/mol; ΔG binding free energy [5]: -8.93 ± 0.14 kcal/mol; ΔH binding enthalpy [5]: -8.85 ± 0.95 kcal/mol; Kd [5]: 285 nM
O=C(O)c1ccccc1Nc1cc(Cl)c(OCCOCCOCCNC(=S)Nc2ccc3c(c2)C(=O)OC32c3ccc(O)cc3Oc3cc(O)ccc32)c(Cl)c1 [Compound 5, 2-(3,5-dichloro-4-(2-(2-(2-(3-(3′,6′-dihydroxy-3-oxo-3H-spiro[isobenzofuran-1,9′-xanthene]-5-yl)thioureido)ethoxy)ethoxy)ethoxy)phenylamino)benzoic acid] | – | – | decrease in binding affinity to TTR on attaching FITC to 4 ([5]; 5 relative to 4): ~3 fold; TΔS binding entropy [5]: 1.44 ± 0.07 kcal/mol; ΔG binding free energy [5]: -8.30 ± 0.45 kcal/mol; ΔH binding enthalpy [5]: -6.86 ± 0.36 kcal/mol; Kd [5]: 820 nM
Cc1n[nH]c(C)c1CCCOc1ccccc1F [Compound 7] | – | – | TΔS binding entropy [5]: -0.15 ± 0.002 kcal/mol; ΔG binding free energy [5]: -8.86 ± 0.17 kcal/mol; ΔH binding enthalpy [5]: -9.01 ± 0.13 kcal/mol; Kd [5]: 321 nM; prevention of WT TTR-induced cytotoxicity (in words) [3]: completely prevented TTR-induced cytotoxicity; prevention of V122I TTR-induced cytotoxicity (in words) [4]: completely prevented TTR-induced cytotoxicity; inhibition of fibril formation [2]: > 75%
CN1C(=N)NC(=O)/C1=C/c1cc(Br)c(O)c(Br)c1 [Compound 14] | – | – | TΔS binding entropy [5]: 2.36 ± 0.08 kcal/mol; ΔG binding free energy [5]: -9.02 ± 0.19 kcal/mol; ΔH binding enthalpy [5]: -6.66 ± 0.22 kcal/mol; Kd [5]: 245 nM; prevention of WT TTR-induced cytotoxicity (in words) [3]: completely prevented TTR-induced cytotoxicity; prevention of V122I TTR-induced cytotoxicity (in words) [4]: completely prevented TTR-induced cytotoxicity; inhibition of fibril formation [2]: > 75%
Cc1n[nH]c(C)c1CCc1nc2c3ccccc3[nH]c(=S)n2n1 [Compound 15] | – | – | prevention of WT TTR-induced cytotoxicity (in words) [3]: completely prevented TTR-induced cytotoxicity; prevention of V122I TTR-induced cytotoxicity (in words) [4]: completely prevented TTR-induced cytotoxicity; inhibition of fibril formation [2]: > 75%
O=C(O)c1cccnc1Nc1cccc(C(F)(F)F)c1 [Niflumic acid, niflumic acid, reference compound] | – | – | prevention of V122I TTR-induced cytotoxicity (in words) [4]: relatively poor inhibitor; TTR aggregation inhibition (in words) [2]: potent aggregation inhibitors
O=C(O)c1cccnc1Nc1cccc(C(F)(F)F)c1 [drawing 60] | – | 4.83 ± 1.19 | –
Cc1n[nH]c(C)c1CCCOc1ccccc1F [drawing 61] | 296 | 0.75 ± 1.06 | –
O=[N+]([O-])c1cc(O)c(O)c([N+](=O)[O-])c1 [drawing 68] | – | 1.08 ± 0.59 | –
O=C(c1cc(O)c(O)c([N+](=O)[O-])c1)c1ccccc1F [drawing 69] | 755 | 0.32 ± 0.45 | –
Cc1n[nH]c(C)c1CCc1nc2c3ccccc3[nH]c(=S)n2n1 [drawing 73] | 1310 | 0.00 ± 0.00 | –

The next lines start with results.

IC50 [1] [nM] | % fibril formation [2] [%] | Compound | also measured
433 | 0.52 ± 0.73 | CC1(C)NC(=O)C(C#N)=C(SCc2ccccc2)S1 | –
842 | 3.22 ± 0.34 | O=C1NC(=O)/C(=C/c2cccc3ccccc23)S1 | –
2660 | 9.60 ± 1.58 | COc1ccccc1CC(=O)c1ccc(O)cc1O | –
3710 | 13.91 ± 1.28 | O=c1c(Oc2ccccc2Br)coc2cc(O)ccc12 | –
3740 | 11.56 ± 0.72 | O=C(O)Cc1ccccc1Nc1c(O)cccc1Cl | –
4790 | 3.17 ± 4.48 | N#CC1=C(SCc2ccccc2)SC(c2ccccc2O)NC1=O (centres unmarked) | –
4930 | 17.57 ± 4.81 | CCOc1cc(C2NC(C(=O)O)CS2)cc(Br)c1OCc1ccccc1C (centres unmarked) | –
5410 | 43.25 ± 4.35 | O=C1C(Br)=CC(=NS(=O)(=O)c2ccccc2)C=C1Br | –
5600 | 35.32 ± 3.69 | Oc1nc(O)c2sc3nc(C(F)(F)F)cc(Cc4ccccc4)c3c2n1 | –
5800 | 38.38 ± 3.33 | O=C1NC(=O)/C(=C/c2ccccc2OCc2ccccc2)S1 | –
10000 | 50.96 ± 1.98 | O=C(NCc1cc(Br)cc(Br)c1O)c1ccccc1 | –
11000 | 47.39 ± 1.94 | Cc1nc2c(C(=O)NCCC(C)C)cnn2c(O)c1Cc1ccccc1F | –
1150 | 0.00 ± 0.00 | CN1C(=N)NC(=O)/C1=C/c1cc(Br)c(O)c(Br)c1 [drawing 72] | –
